Entries after “also recorded” stand apart in the source; their conditions may differ.
Legend:
[1] = tested on: monocrotaline-induced hepatic venoocclusive disease; test: monocrotaline-induced rat model of SOS (hepatic venoocclusive disease), blinded histologic scoring; assay type: in vivo; settings: for prevention of SOS (overall histologic score, FIG. 1): monocrotaline model
Description: This FIGURE describes the effect of MMP inhibition in the in monocrotaline-induced model of SOS. Injury is rated as absent (−) or as one, two or three plus. The overall score reflects central vein (CV) endothelial damage, hemorrhage and coagulative necrosis: 2-3 points is considered mild SOS, 4-6 points is considered moderate SOS and 7-9 points is severe disease. The MMP2/MMP9 inhibitor used is 2-[(4-biphenylylsulfonyl)amino]-3-phenyl-propionic acid.
The present invention provides methods for using matrix metalloproteinase inhibitors to prevent and treat chemotherapy-induced liver disease, such as SOS and radiation-induced liver disease. These studies were done in an in vivo model of monocrotaline-induced hepatic venoocclusive disease which closely resembles the human disease.^8 Two commercially available MMP inhibitors were tested in the in vivo rat model of hepatic venoocclusive disease: doxycycline and the MMP-2/MMP-9 inhibitor, 2-[(4-biphenylsulfonyl)amino]-3-phenyl-propionic acid. Doxycycline, 15 mg/kg was given twice daily by gavage prior to onset of the disease and continued until the time of sacrifice. 2-[(4-biphenylsulfonyl)amino]-3-phenyl-propionic acid, 200 μg/hour was infused into the portal circulation until the time of sacrifice. A systematic scoring system was devised to review all the changes associated with hepatic venoocclusive disease.
The rats that were treated with the MMP inhibitors were sacrificed on day 4, which is the time-point with most severe disease in this model of hepatic venoocclusive disease when no therapeutic interventions are used. […] Both of these MMP inhibitors prevent hepatic venoocclusive disease in a dose-dependent manner, these showing that this is a class effect of MMP inhibitors and characteristic of MMP inhibition.

MMPs = settings: stated in words, no test described; cited from earlier work

Row | Compound | prevention of SOS (overall histologic score, FIG. 1) ([1]; day 4) | inhibitory effect on MMPs (MMPs) | hepatic venoocclusive disease on blinded pathology scoring ([1]; day 4, 200 μg/hour infused intraportally by osmotic minipump) | protection from liver changes at lower doses ([1]; doses lower than 15 mg/kg twice daily (doxycycline) or 200 μg/hour (BPP)) | prevention of SOS (overall histologic score, FIG. 1) ([1]; day 4, listed as 2-[(4-biphenylylsulfonyl)amino]-3-phenyl-propionic acid) | prevention of SOS (overall histologic score, FIG. 1) ([1]; day 4, listed as BPP)
1 | Cc1c2c(c(O)c3c(O)cccc13)C(=O)[C@]1(O)C(=O)C(C(N)=O)=C(O)[C@@H](N(C)C)[C@@H]1C2 [anhydrotetracycline] | do not prevent SOS; also recorded: minimal protective effect | weak MMP inhibitors; also recorded: little inhibitory effect on MMPs |  |  |  | 
2 | O=C(O)C(Cc1ccccc1)NS(=O)(=O)c1ccc(-c2ccccc2)cc1 (centres unmarked) [2-[(4-biphenylsulfonyl)amino]-3-phenyl-propionic acid] |  |  | absence of hepatic venoocclusive disease | partial protection | completely prevented | completely inhibits SOS
3 | isochlorotetracycline | do not prevent SOS; also recorded: minimal protective effect | weak MMP inhibitors; also recorded: little inhibitory effect on MMPs |  |  |  | 

Source: patent US20020147158A1, “Composition and method for preventing and treating sinusoidal obstruction syndrome and radiation-induced liver disease” (University of Southern California, priority 2001, published 2002)
